# Values quoted from earlier work as cited in PMC9486889 (Japanese Journal of Clinical Oncology, 2022).
# Columns and labels:
# [1] = system: HDAC2; details: cited from earlier work
# [2] = system: HDAC1; details: cited from earlier work
compound,measurement,setting,value
"Nc1cc(F)ccc1NC(=O)c1ccc(CNC(=O)/C=C/c2cccnc2)cc1 [HBI-8000, tucidinostat]",Inhibition of HDAC activity,[1],selectively inhibits
same,Inhibition of HDAC activity,[2],selectively inhibits
